Assay results as given in patent US10464957B2, “Oxidized lipids and methods of use thereof” (Vascular Biogenics Ltd., priority 2014, dated 2019).

Tests used:
TLR4 complex = biological target: T1, TLR4 complex (Homo sapiens, UniProt O00206+Q9Y6Y9); assay: LPS binding inhibition assay (biotin-LPS, FACS); settings: biotin-LPS 100 ng/ml, FACS
T1 construct: endogenous in cells; probably the human primary monocytes of b454
Experimental: To assess interference with lipopolysaccharide (LPS) binding, VB-201 or VB-703 were incubated for 20 min with cells (10^6/ml) after which 100 ng/ml of biotin-LPS (InvivoGen) was added for an additional 15 minutes, all at 4° C. Cells were washed, resuspended in FACS buffer and analyzed on a FACS-Calibur device.

[1] = tested on: human monocytes (primary CD14+); assay: Chemokine-induced cell migration trans-well assay; format: cell-based; settings: RANTES 100 ng/ml and MCP-1 50 ng/ml, 2-4 hours, FACS count
Experimental: Venous blood samples were obtained from healthy male donors in compliance with the Institutional Review Board at the Sheba Medical Center, Ramat Gan, Israel. PBMCs were isolated on Ficoll-Paque PLUS (GE Healthcare, Uppsala, Sweden) using 50 ml Leucosep tubes (Greiner Bio-One, Frickenhausen, Germany). Cells were washed in PBS (Kibbutz Beit Haemek, Israel) and incubated at 4° C. for 15 minutes in a buffer containing PBS and 0.5% bovine serum albumin (BSA) with human CD14 microbeads (Miltenyi Biotec, Bergisch Gladbach, Germany).
Cells (10^6/ml) were pretreated for 20 min with VB-201 or VB-701 at the doses indicated in FIG. 5, or with solvent (Sol).
To test for chemokine-induced cell migration, RANTES (100 ng/ml; Cat. No. 300-06, PeproTech, Israel) and MCP-1 (50 ng/ml; Cat. No. 300-04, PeproTech, Israel) were dissolved in RPMI-1640 medium supplemented with 0.5% fetal bovine serum (FBS) and placed at the lower chamber of QCM 24-well, […], migration assay plates (Corning-Costar, Corning, N.Y.). Cells (3×10^5) were seeded in the upper chamber and incubated for 2-4 hours. Subsequently, the number of cells which migrated to the lower compartment was determined by fluorescence-activated cell sorting (FACS).

[2] = tested on: kidney of nephrectomized rats; assay: Real-time PCR of pro-fibrotic markers in kidney of nephrectomized rats; format: in vivo, Sprague Dawley (SD) Rats
Experimental: Kidney RNA was extracted with an RNeasy Fibrous Tissue Mini kit (Qiagen) and after DNAse I treatment, single-stranded cDNA was synthesized from 2 μg total RNA using the qScript cDNA Synthesis Kit (Quanta Biosciences) and diluted for real-time PCR. The expression of collagen 4α, fibronectin and TGFβ was quantified using the 7300 Real Time PCR System (Applied Biosystems). The assay was performed according to manufacturer instructions using the primers (Assay ID) represented at the table below supplied by Applied Biosystems. Data were normalized to the reference gene TATA box Binding Protein (TBP) and presented as relative mRNA levels compared with Sham PBS 0.5% Eth treatment (Table 1).

NASH-induced mice = assay: NASH and liver fibrosis mouse model (STZ + HFD), liver histology; format: in vivo; settings: VB-703 4 mg/kg, telmisartan 10 mg/kg, once daily for three weeks
Experimental: Neonatal male mice exposed to low-dose streptozotocin (STZ) develop liver steatosis with diabetes. Continuous high fat diet (HFD) increases lobular inflammation with foam cell-like macrophages, showing nonalcoholic steatohepatitis (NASH) pathology. NASH was induced in 40 male mice by a single subcutaneous injection of 200 μg per mouse of STZ two days after birth and feeding HFD [57 kcal % fat]) from four weeks of age. Vehicle, VB-703 (4 mg/kg), or telmisartan (10 mg/kg) as positive control, were administered once daily for three weeks, starting from six weeks of age. Mice were sacrificed at nine weeks of age.
Liver pathology was used to determine the effect of VB-703 on liver inflammation and fibrosis. Histology slides were stained with hematoxylin/eosin (H&E) to assess inflammation. The inflammation score was determined as follows:
Histology slides were stained with Sirius red to determine collagen content as a marker for the extent of fibrosis.

nephrectomized rats = assay: 5/6 nephrectomy chronic renal disease rat model (focal and segmental glomerulosclerosis); format: in vivo, Sprague Dawley (SD) Rats; settings: VB-703 4 mg/kg
Experimental: Male Sprague Dawley (SD) Rats (Harlan Laboratories, Israel) with an initial weight of 200 g were housed 2-3 per cage in IVC cages in dedicated HVAC (heat, ventilation, air conditioning animal facility at a temperature of 22±2° C. and RH (relative humidity) of 55±15%). Temperature and humidity were monitored continuously. The facility had no exposure to outside light and was maintained on automatic alternating cycles of 12 hours of light and 12 hours of dark. Animals were provided with a commercial rodent diet (Harlan Teklad TRM Rat/Mouse Diet) ad libitum and allowed free access to autoclaved water, supplied to each cage via polysulphone bottles with stainless steel sipper tubes. All animal work was approved by the Animal Care and Use Committee of Israel (IL-13-03-027).
Rats were divided into three groups: (1) Healthy rats (n=3) in group A, (2) Sham group—subjected to chirurgical process but without kidney mass reduction (n=3) in group B, and (3) the rest were induced with chronic renal failure (n=32). Chronic renal failure was induced by a two stage (5/6) nephrectomy (Nx), with subtraction firstly of about ⅔ of the left kidney by left flank incision and, one week later, complete removal of the right kidney. General anesthesia consisted of intraperitoneal injection of ketamine 100 mg/kg and xylazine 20 mg/kg (0.85 ml ketamine+0.15 ml xylazine for each ml preparation; 1 μl/g BW was injected I.P).
One week following the second surgery, rats were randomly assigned to the following experimental groups:
Nephrectomized, orally administered with VB-703 4 mg/kg (n=8); and
Nephrectomized, orally administered with telmisartan 10 mg/kg as positive control (n=8).
Body weight (BW) was monitored throughout the study and rats were treated by oral gavage according to their body weight for 7 weeks. Rats were sacrificed by CO2 inhalation 8 weeks from removal of the right kidney (2nd surgery).
Proteinuria and albuminuria was determined in urine specimens, collected during a 24-hour period, from animals housed in cages at 4 weeks (3 w of treatment) and 8 weeks (7 w of treatment) after the subtotal nephrectomy (2nd surgery). Urine samples were analyzed for: glucose, urea, sodium, potassium, creatinine, total protein, and albumin.
Upon sacrifice, at 8 weeks, kidneys were collected, weighed and fixed in 4% formaldehyde.
For light microscopy, paraffin-embedded tissue slides of 4 μm were stained with Periodic Acid-Schiff (PAS) reagent, Masson's Trichrome and Hematoxylin & Eosin.
Glomerular sclerosis index. Glomerulosclerosis was assessed by PAS-stained sections using a semiquantitative scoring system. The extent of glomerulosclerosis was evaluated by examining mostly 100 randomly selected glomeruli at a magnification of ×400 and applying a score system according to the percentage of sclerosed glomerular area. The score was graded from 0 to 4: (0=0% area; 1=1-25%; 2=26-50%, 3=51-75%, 4=76% and above). The mean of all scored glomeruli was presented. Moreover, the extent of global and segmental glomerulosclerosis was evaluated in the same glomeruli, where <80% sclerosis was referred to as segmental and >80% was referred to as global.
Glomerular area. The glomerular area of mostly 100 randomly selected glomeruli at a magnification of ×100 was quantitated by counting squares covered by glomeruli area using a grid and the mean glomeruli area was calculated.
Renal tissues were fixed in 4% formaldehyde and embedded in paraffin. The paraffin-embedded tissues were then cut to form tissue slides of 4 μm. Immunohistochemistry of the paraffin-embedded tissue slides was analyzed using antibodies in the following concentration: monoclonal mouse anti rat CD-68 (ED-1, Serotec MCA341) 1:25. For quantitation of interstitial CD68+ staining, the number of positive cells was counted in 20 randomly selected non-overlapping fields per animal, and the mean value was presented. […]

[3] = compared to Nx PBS 0.5% Eth treatment, VB-703 4 mg/kg, telmisartan 10 mg/kg
[4] = normalized to TBP, relative to Sham PBS 0.5% Eth, mean±SEM
[5] = Nx rats, Telmisartan 10 mg/kg, 8 weeks, Mean ± S.E
[6] = telmisartan 10 mg/kg, oral 7 weeks, vs Nx PBS 0.5% Eth

T1 sequence (O00206 24-839): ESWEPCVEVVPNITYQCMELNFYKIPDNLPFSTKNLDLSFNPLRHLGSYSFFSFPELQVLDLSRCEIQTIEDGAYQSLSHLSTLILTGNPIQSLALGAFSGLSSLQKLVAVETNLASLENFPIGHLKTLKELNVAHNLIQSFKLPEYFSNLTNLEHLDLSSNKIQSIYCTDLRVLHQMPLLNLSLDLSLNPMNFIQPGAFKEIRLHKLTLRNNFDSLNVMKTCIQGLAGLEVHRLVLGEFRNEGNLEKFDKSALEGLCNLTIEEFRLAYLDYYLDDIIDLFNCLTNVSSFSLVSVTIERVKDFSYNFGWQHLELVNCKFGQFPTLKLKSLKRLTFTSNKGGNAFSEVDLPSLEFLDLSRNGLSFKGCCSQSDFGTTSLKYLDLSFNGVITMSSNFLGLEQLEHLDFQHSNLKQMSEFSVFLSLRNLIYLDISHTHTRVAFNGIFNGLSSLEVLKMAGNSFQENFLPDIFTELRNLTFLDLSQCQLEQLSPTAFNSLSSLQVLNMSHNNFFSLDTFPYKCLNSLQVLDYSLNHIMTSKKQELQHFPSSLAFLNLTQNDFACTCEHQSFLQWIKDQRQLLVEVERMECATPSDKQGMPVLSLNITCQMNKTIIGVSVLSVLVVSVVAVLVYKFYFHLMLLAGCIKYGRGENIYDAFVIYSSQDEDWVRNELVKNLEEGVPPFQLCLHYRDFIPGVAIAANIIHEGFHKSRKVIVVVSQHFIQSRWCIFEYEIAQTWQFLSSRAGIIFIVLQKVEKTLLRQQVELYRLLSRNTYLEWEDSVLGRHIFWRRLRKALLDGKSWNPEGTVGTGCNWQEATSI
T1 sequence (Q9Y6Y9 17-160 limits assumed): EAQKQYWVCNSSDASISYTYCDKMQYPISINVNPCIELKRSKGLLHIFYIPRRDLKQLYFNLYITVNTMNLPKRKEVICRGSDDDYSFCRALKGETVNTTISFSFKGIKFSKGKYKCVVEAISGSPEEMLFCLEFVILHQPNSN

Row | Compound | LPS-biotin binding to human monocytes (primary CD14+) (TLR4 complex) | chemokine-induced migration of human monocytes [1] | reduction of Collagen IV expression [2, 3] [%] | reduction of TGF-β expression [2, 3] [%] | reduction of fibronectin expression [2, 3] [%] | Collagen IV mRNA expression (relative mRNA level) [2, 4] | TGF-β mRNA expression (relative mRNA level) [2, 4] | fibronectin mRNA expression (relative mRNA level) [2, 4] | decrease of liver fibrosis compared to vehicle treated mice (Sirius red) (NASH-induced mice) [%] | Glomerular sclerosis Global % (nephrectomized rats; [5]) [%] | Glomerular sclerosis Global & Segmental % (nephrectomized rats; [5]) [%] | Glomerular sclerosis Segmental % (nephrectomized rats; [5]) [%] | glomerular and interstitial monocyte/macrophage infiltration (CD68 positive cells) (nephrectomized rats; telmisartan 10 mg/kg, 8 weeks) | reduction of damaged glomeruli percent (nephrectomized rats; [6]) [%] | reduction of sclerotic glomeruli (nephrectomized rats; [6]) [%]
1 | CCCCCCCCCCCCCCCCOCC(COP(=O)([O-])OCC[n+]1ccccc1)OCCCCC(=O)OC (stereo not drawn) [VB-704, 1-hexadecyl-2-(4′-carboxymethyl)butyl-glycero-sn-3-phosphoric acid pyridiniumethyl ester] | does not inhibit | inhibits | – | – | – | – | – | – | – | – | – | – | – | – | –
2 | CCCc1nc2c(C)cc(-c3nc4ccccc4n3C)cc2n1Cc1ccc(-c2ccccc2C(=O)O)cc1 [telmisartan, reference compound] | – | – | 41 | 44 | 23 | 4.4±0.23 | 4.7±0.52 | 9.8±2.09 | 47 | 1.9 ± 1.60 | 21.0 ± 5.45 | 19.1 ± 4.30 | did not produce a significant effect | 31 | 57
